Test results reported in patent US9694072B2, “Methods for diagnosing and treating neuroendocrine cancer” (Trustees of Dartmouth College, priority 2005, dated 2017).
pIC50: −log10 of the molar value. Structures can show the parent of a compound that is named as a salt. Where two headings read alike, the source gives them in different places.

Legend:
NCI-H146 cells = assay: Cell growth/viability assay (Alamar Blue); assay type: cell-based, human; settings: Homo sapiens, NCI-H146, 48 h, read-out: IC50, cell viability
Experimental: (§1) Cultures of NCI-H345, NCI-H146, DMS-53 cells (classical cell lines), and NCI-H82 cells (variant cell line) were treated with 0.05% trypsin, washed in phosphate buffered saline (PBS)/glycine and plated onto 96-well plates at 10^4 cells/well in medium for 24 hours to provide time for rectifying possible damage to membrane proteins from the trypsinization. […] Fluorescent readings were taken at periods representing 24, 48, and 72 hours of incubation with antagonist using a Synergy HT Multi-Detection Microplate Reader and excitation/emission wavelengths of 530 nm and 590 nm. Cell viability was evaluated as % vehicle control at the corresponding incubation time.

[1] = test system: MCF-7 breast cancer cells; assay: Alamar Blue growth/proliferation study; assay type: cell-based, human; settings: MCF-7, NMDAR1 antagonist treatment
[2] = test system: NCI-H82 variant SCLC cells; assay: Cell growth/viability assay (Alamar Blue); assay type: cell-based, human; settings: for pIC50: Homo sapiens
Experimental: as §1

[3] = test system: LNCAP prostate cancer cells; assay: Prostate cancer cell viability (Alamar Blue); assay type: cell-based, human
Experimental: To determine the effects of NMDAR1 antibodies on prostate cell viability, LNCAP prostate cancer cells were plated in 96 well plates at 1-2×10^4 cells/well. […] Alamar Blue was later added to each well following an incubation period, and fluorescent readings taken at excitation 530-560 nm and emission 590 nm and above on a SYNERGY HT Multi Detection Reader.

[4] = test system: Ovarian A2780 and A2008 cancer cells; assay: Ovarian cancer cell growth (Alamar Blue); assay type: cell-based, human
Experimental: Ovarian A2780 and A2008 cancer cells were plated in 96 well plates at 1-2×10^4 cells/well. […] Alamar Blue was later added to each well following an incubation period, and fluorescent readings taken at excitation 530-560 nm and emission of 590 nm and above on a SYNERGY HT Multi Detection Reader. […] Significance was p<0.001 for 400 to 900 μM of MK-801. […] These findings indicate both NMDAR antagonists and anti-NMDA receptor monoclonal antibodies would be of use as effective inhibitors of ovarian tumor xenografts in mice.

[5] = test system: SCLC NCI-H345 tumor xenografts; assay: Treatment of SCLC tumor xenografts in mice; assay type: in vivo, nu/nu mice
Description: Human tumor xenografts of small cell lung cancer (SCLC) cell line NCI-H345 were raised in nu/nu mice, and the influence of the NMDAR1 receptor antagonist dizocilpine maleate (MK-801) then examined on established tumor growth measured by multiplying depth, width, and length determined using a micrometer. Tumor growth in a control group of animals receiving i.p. PBS vehicle (n=4) was compared to tumor growth in animals (n=4) receiving dizocilpine maleate (MK-801) over 10 days. Animals received an escalating single dose of this NMDAR1 antagonist from 0.1 mg/Kg body weight each day for days 0-2, then to a single dose of 0.2 mg/Kg body weight each day for days 3-6, then to a single dose of 0.3 mg/Kg body weight each day for days 7-8. Finally two daily doses of 0.3 mg/Kg body weight were given for days 8-10.
Results were analyzed by Analysis of Variance and the Student-Neuman-Kuels test. Longitudinal growth data was evaluated using repeated measures ANOVA. Significant was determined to be present for p<0.05.

[6] = test system: SKBr3 breast cancer cells; assay: Alamar Blue growth/proliferation study; assay type: cell-based, human; settings: SKBr3, NMDAR1 antagonist treatment
Experimental: Results represent triplicate studies performed with Alamar Blue on LAN2 neuroblastoma, MCF-7 breast cancer, and SKBr3 breast cancer cells examining the growth influence of 1 mM glutamate in the presence of glycine over 24 hours.
Results represent triplicate studies performed with Alamar Blue on LAN2 neuroblastoma, MCF-7 breast cancer, and SKBr3 breast cancer cells examining the growth influence of 100 mM Mg^++ in the presence of glycine over 24 hours.

[7] = test system: Human tumor xenografts of breast cancer cells; assay: Breast cancer xenografts treated with anti-NMDAR1 antibodies; parameters: species or system nu/nu mice; settings: mouse
Experimental: Human tumor xenografts of breast cancer cells were raised in nu/nu mice, and the influence of anti-NMDAR1 polyclonal antibodies then examined on tumor growth. For antibody studies, growth in a control group (n=4) was compared to tumor growth in animals (n=4) receiving 50 ng of Protein A-isolated, antibody-containing, IgG once each day for 15 days. Tumor was then measured for an […]. While control tumors grew to >20 times their original size, tumors treated with anti-NMDAR1 antibodies shrank to <50% original size and remained at this shrunken size for the duration of treatment (p<<0.0001)(FIG. 7). Tumor size then began very slowly to rise but even 20 days later they were only back to original size (100%). Values are expressed as a percentage of tumor size at day 0 (+/−SEM).

[8] = test system: SKBr3 breast cancer cells; assay: Alamar Blue growth/proliferation study; assay type: cell-based, human
[9] = test system: NCI-H345 classical SCLC cells; assay: Cell growth/viability assay (Alamar Blue); settings: for pIC50: Homo sapiens
Experimental: Cultures of NCI-H345, NCI-H146, DMS-53 cells (classical cell lines), and NCI-H82 cells (variant cell line) were treated with 0.05% trypsin, washed in phosphate buffered saline (PBS)/glycine and plated onto 96-well plates at 10^4 cells/well in medium for 24 hours to provide time for rectifying possible damage to membrane proteins from the trypsinization. The wells were washed and incubated with PBS/glycine containing albumin (1.25 mg/mL) in the presence or absence of different concentrations (25 μM-800 μM) of either the NMDAR 1 antagonists, Memantine or MK-801; or the NMDAR2B antagonists Ifenprodil and Ro 25-6981 (binders to the polyamine site), or the NMDAR2B antagonists L-701,252 and L-701,324 (binders to the glycine site), or vehicle; and Alamar Blue (1:10 dilution following manufacturer's recommendation). Fluorescent readings were taken at periods representing 24, 48, and 72 hours of incubation with antagonist using a Synergy HT Multi-Detection Microplate Reader and excitation/emission wavelengths of 530 nm and 590 nm. Cell viability was evaluated as % vehicle control at the corresponding incubation time.
This peptide domain is represented in that portion of the mRNA message sequenced by RT-PCR. For studies on cell proliferation, the IgGs of this antiserum were first isolated by precipitation with 50% saturated ammonium sulfate, and antibodies purified from these immunoglobulins by affinity chromatography using a column containing the peptide component of the above antigen coupled to SEPHAROSE (Friedmann, et al. (1994) supra; Keegan, et al. (2002) supra).

DMS-53 cells = assay: Cell growth/viability assay (Alamar Blue); assay type: cell-based, human; settings: Homo sapiens, DMS-53, 48 h, read-out: IC50, cell viability
Experimental: as §1

## C[C@]12N[C@H](Cc3ccccc31)c1ccccc12 [MK-801, dizocilpine maleate]
NCI-H146 cells
  pIC50: 3.19
[1]
  effect on proliferation (in words): decrease proliferation
[2]; NCI-H82, 48 h, read-out: IC50, cell viability
  pIC50: 3.52
[2]; NCI-H82, read-out: IC50, cell viability
  pIC50: ~3.70
[2]; NCI-H82, 24, 48, and 72 hours incubation
  Cell viability reduced to: about 10 % of control
[3]
  effect on cell growth/viability (in words): significance in reductions was p<0.001 for 400 to 900 μM
[4]; at 500, 600, 700, 800, and 900 μM compared to 100, 200 and 400 μM
  reduction in fluorescent units: more than 50%
[4]; ovarian cancer cells, Alamar Blue
  effect on cell growth (in words): dramatic reductions in cell growth
[5]; MK-801 at the dose indicated
  behavioral effects in the animals: no noticeable behavioral effects
  well-being as exemplified by body weight: no apparent effect on their well-being
[5]; escalating doses from 0.1 mg/kg once daily to 0.3 mg/kg twice daily
  Growth of small-cell tumors (in words): significantly (p<0.0001) reduced
[5]; i.p., escalating 0.1 to 0.3 mg/Kg over 10 days
  rate of tumor growth reduced to: ~60 % that of controls
[6]
  effect on proliferation (in words): decrease proliferation
[7]
  growth of breast cancer tumors in vivo (in words): completely inhibited growth of these tumors in vivo
[8]; 100 μM, 24 Hours
  Proliferation of SKBr3 Cells Percent Fluorescence Compared to Control: 92.29 ± 6.82%
[8]; 100 μM, 48 Hours
  Proliferation of SKBr3 Cells Percent Fluorescence Compared to Control: 91.74 ± 2.94%
[8]; 100 μM, 72 Hours
  Proliferation of SKBr3 Cells Percent Fluorescence Compared to Control: 95.06 ± 1.22%
[8]; 200 μM, 24 Hours
  Proliferation of SKBr3 Cells Percent Fluorescence Compared to Control: 89.47 ± 5.77%
[8]; 200 μM, 48 Hours
  Proliferation of SKBr3 Cells Percent Fluorescence Compared to Control: 89.35 ± 2.83%
[8]; 200 μM, 72 Hours
  Proliferation of SKBr3 Cells Percent Fluorescence Compared to Control: 93.24 ± 1.68%
[8]; 300 μM, 24 Hours
  Proliferation of SKBr3 Cells Percent Fluorescence Compared to Control: 84.39 ± 5.01%
[8]; 300 μM, 48 Hours
  Proliferation of SKBr3 Cells Percent Fluorescence Compared to Control: 83.79 ± 2.71%
[8]; 300 μM, 72 Hours
  Proliferation of SKBr3 Cells Percent Fluorescence Compared to Control: 88.97 ± 2.04%
[8]; 400 μM, 24 Hours
  Proliferation of SKBr3 Cells Percent Fluorescence Compared to Control: 75.17 ± 4.67%
[8]; 400 μM, 48 Hours
  Proliferation of SKBr3 Cells Percent Fluorescence Compared to Control: 70.62 ± 2.34%
[8]; 400 μM, 72 Hours
  Proliferation of SKBr3 Cells Percent Fluorescence Compared to Control: 77.08 ± 2.78%
[8]; 500 μM, 24 Hours
  Proliferation of SKBr3 Cells Percent Fluorescence Compared to Control: 65.50 ± 3.74%
[8]; 500 μM, 48 Hours
  Proliferation of SKBr3 Cells Percent Fluorescence Compared to Control: 59.07 ± 2.49%
[8]; 500 μM, 72 Hours
  Proliferation of SKBr3 Cells Percent Fluorescence Compared to Control: 67.02 ± 5.13%
[8]; 600 μM, 24 Hours
  Proliferation of SKBr3 Cells Percent Fluorescence Compared to Control: 58.06 ± 3.00%
[8]; 600 μM, 48 Hours
  Proliferation of SKBr3 Cells Percent Fluorescence Compared to Control: 50.59 ± 2.34%
[8]; 600 μM, 72 Hours
  Proliferation of SKBr3 Cells Percent Fluorescence Compared to Control: 52.57 ± 2.28%
[8]; 700 μM, 24 Hours
  Proliferation of SKBr3 Cells Percent Fluorescence Compared to Control: 51.97 ± 2.77%
[8]; 700 μM, 48 Hours
  Proliferation of SKBr3 Cells Percent Fluorescence Compared to Control: 43.84 ± 3.41%
[8]; 700 μM, 72 Hours
  Proliferation of SKBr3 Cells Percent Fluorescence Compared to Control: 44.88 ± 3.40%
[8]; 800 μM, 24 Hours
  Proliferation of SKBr3 Cells Percent Fluorescence Compared to Control: 43.27 ± 2.50%
[8]; 800 μM, 48 Hours
  Proliferation of SKBr3 Cells Percent Fluorescence Compared to Control: 33.77 ± 4.19%
[8]; 800 μM, 72 Hours
  Proliferation of SKBr3 Cells Percent Fluorescence Compared to Control: 33.91 ± 4.35%
[8]; 900 μM, 24 Hours
  Proliferation of SKBr3 Cells Percent Fluorescence Compared to Control: 35.73 ± 2.66%
[8]; 900 μM, 48 Hours
  Proliferation of SKBr3 Cells Percent Fluorescence Compared to Control: 25.48 ± 5.92%
[8]; 900 μM, 72 Hours
  Proliferation of SKBr3 Cells Percent Fluorescence Compared to Control: 25.21 ± 5.96%
[8]; SKBr3, 0.9 mM, 72 hours
  reduced proliferation by: about 80%
[9]; NCI-H345, 48 h, read-out: IC50, cell viability
  pIC50: 3.52
[9]; NCI-H345, read-out: IC50, cell viability
  pIC50: ~3.70
[9]; NCI-H345, 24, 48, and 72 hours incubation
  Cell viability reduced to: about 10 % of control
DMS-53 cells
  pIC50: < 3.10
